From patent publication US11779567B2, “Method for optimizing 5-hydroxytryptamine function in the brain for therapeutic purposes” (Evecxia Therapeutics, Inc., priority 2021, dated 2023)
“And” between values parts separate entries of the source, which are not always exact repeats. Equal entries are not always repeated. Where two headings read alike, the source gives them in different places.

Assays:
[1] = Dose-proportionality assessment (power model) of IV 5-HTP continuous infusion; assay type: in vivo, human; conditions: doses up to 3 mg/kg/24 hr
Text: Background: The term dose proportionality denotes a proportional and linear relationship between dose and a pharmacokinetic measure, for the specific (i) dose-range, (i) dosing route, and (iii) dosing regimen investigated. More particularly, if doubling the dose doubles the pharmacokinetic measure of maximal (CMax) or total (AUC) systemic exposure to the compound administered, then dose proportionality is present, at least within the dose ranges examined. […] The relationship between dose and plasma compound concentration (C (e.g., CMax or AUC)) can be described via the following equation: C=α dose^β When β=1, dose proportionality is present. If so, C=α dose. α is a constant relating dose to C, for a given range of C and given dose units, and is identical to the slope of the regression line. In the power model (Smith et al, 2000), dose proportionality is assessed via the following linear equation: log(C)=log(α)+β×log(dose)+error Based on standard statistical methods for linear models, estimates for β together with confidence limits can be derived. […]
Methods: Applying the approach by Smith (Smith et al, 2000), using a general linear model and SAS software Version 9.4, dose proportionality of continuously administered IV 5-HTP was assessed using the data in Table 9, below. […]

[2] = Plasma 5-HTP pharmacokinetics of 24 h continuous IV 5-HTP infusion, Phase 1 study; assay type: in vivo, human
Description: Study Design. A Phase 1, randomized, double-blind, placebo-controlled, single ascending dose study was performed to evaluate the safety, tolerability and pharmacokinetics (PK) of 5-HTP solution for IV infusion when administered to healthy adults taking a selective serotonin reuptake inhibitor (SSRI), escitalopram, for 3 weeks. Study duration was 37±3 days. The total individual subject participation time was no more than 66 days including screening, dosing, and follow-up phases. The IV infusion duration was 24 h, dosing with 5-HTP solution for IV infusion (see Example 3, above) or placebo (0.9% saline).
Subjects. A total of 39 healthy male and female subjects were randomized across 5 cohorts, each with 8 subjects (6 active:2 placebo) per cohort except for Cohort 5 (5 active:2 placebo). For each cohort, first 2 sentinel subjects received IV 5-HTP (N=1) or placebo (N=1) prior to dosing of the remaining 5 or 6 subjects.
IV infusion. 5-HTP solution for IV infusion or placebo was administered IV at a constant rate or ramped rate of infusion over 24 hr.
Constant rate infusion. 5-HTP solution for IV infusion was administered at constant infusion rates of 1 mg/kg/24 hr in Cohort 1 and 3 mg/kg/24 hr in Cohort 2. The infusion rate was 41.67 ml/h.
Ramp rate infusion. To gradually elevate 5-HTP plasma levels, 5-HTP solution for IV infusion was administered at a ramp rate of infusion for Cohorts 3, Cohort 4, and Cohort 5, at average 5-HTP infusion rates of 3 mg/kg/24 hr, 2 mg/kg/24 hr and 1 mg/kg/24 hr, respectively. The infusion volume rates were 13.89 ml/hr at T=0-4 hr; 27.78 ml/hr at T=4-8 hr; 41.67 ml/hr at T=8-12 hr; and 55.55 ml/hr at T=12-24 hr.
Bioanalysis. Plasma samples for 5-HTP analysis were collected and stored at −80° C. Plasma samples for escitalopram analysis were collected and stored at −80° C. Plasma 5-HTP levels and plasma escitalopram levels were measured using standard liquid chromatography with tandem mass spectrometry (LC-MS-MS) methods. For 5-HTP analysis, plasma samples were collected at T=0, 1, 2, 3, 4, 5, 6, 8, 10, 12, 14, 22, 24, 26, 28, 30, 32, 36, and 48 hr. For escitalopram analysis, plasma samples were collected on Day 7, Day 21 (pre-infusion), Day 22 (end of infusion), and Day 23 (24 hr after end of infusion). Plasma escitalopram levels were averaged across days 21-23, during the time-period when subjects were admitted to the clinic and received 5-HTP solution for IV infusion or placebo.
Statistical analysis. Subjects receiving placebo across the 5 cohorts (N=2 per cohort) were pooled. Descriptive statistics were calculated for each quantitative variable within each treatment group and placebo (n, mean, standard deviation, median, minimum, maximum).
PK analysis of plasma 5-HTP. The PK population included subjects who received 5-HTP solution for IV infusion and completed the 24 h infusion. PK parameters were computed for each Cohort/dose/infusion paradigm. Placebo data from all cohorts were pooled.

[3] = both sexes, human, plasma, intravenous, 1 mg/kg, individual subjects, Constant rate 1 mg/kg/24 hr
[4] = both sexes, human, plasma, intravenous, 1 mg/kg, individual subjects, Ramp rate 1 mg/kg/24 hr
[5] = both sexes, human, plasma, intravenous, 2 mg/kg, individual subjects, Ramp rate 2 mg/kg/24 hr
[6] = both sexes, human, plasma, intravenous, 3 mg/kg, individual subjects, Constant rate 3 mg/kg/24 hr
[7] = both sexes, human, plasma, intravenous, 3 mg/kg, individual subjects, Ramp rate 3 mg/kg/24 hr
[8] = both sexes, human, plasma, iv, 1 mg/kg, Cohort 1, constant rate 1 mg/kg/24 hr IV, healthy adults on escitalopram, mean, N=6
[9] = both sexes, human, plasma, iv, 1 mg/kg, Cohort 5, ramp rate 1 mg/kg/24 hr IV, healthy adults on escitalopram, mean, N=5
[10] = both sexes, human, plasma, iv, 2 mg/kg, Cohort 4, ramp rate 2 mg/kg/24 hr IV, healthy adults on escitalopram, mean, N=6
[11] = both sexes, human, plasma, iv, 3 mg/kg, Cohort 2, constant rate 3 mg/kg/24 hr IV, healthy adults on escitalopram, mean, N=4 completers
[12] = both sexes, human, plasma, iv, 3 mg/kg, Cohort 3, ramp rate 3 mg/kg/24 hr IV, healthy adults on escitalopram, mean, N=6
[13] = individual subjects, Constant rate 1 mg/kg/24 hr
[14] = individual subjects, Constant rate 3 mg/kg/24 hr
[15] = individual subjects, Ramp rate 1 mg/kg/24 hr
[16] = individual subjects, Ramp rate 2 mg/kg/24 hr
[17] = individual subjects, Ramp rate 3 mg/kg/24 hr

differences in CAve, AUCInf or AUCLast between constant rate and ramp rate infusion ([2]; 1 mg/kg/24 hr or 3 mg/kg/24 hr average infusion rates, p>0.05, unpaired t-test): no significant differences
CAve (0-24 h) ([2]; Cohort 1, constant rate 1 mg/kg/24 hr IV, healthy adults on escitalopram, mean, N=6): 94 ng/mL
initial 5-HTP plasma levels, T=1 h ([2]; Cohort 2, constant 3 mg/kg/24 hr, the 2 discontinued subjects): 304 ng/mL
CAve (0-24 h) ([2]; Cohort 2, constant rate 3 mg/kg/24 hr IV, healthy adults on escitalopram, mean, N=4 completers): 268 ng/mL
CAve (0-24 h) ([2]; Cohort 4, ramp rate 2 mg/kg/24 hr IV, healthy adults on escitalopram, mean, N=6): 160 ng/mL
CAve (0-24 h) ([2]; Cohort 5, ramp rate 1 mg/kg/24 hr IV, healthy adults on escitalopram, mean, N=5): 82 ng/mL
AUC(0-inf) [2, 3]: 2920 ng·h/mL
AUC(0-t) [2, 3]: 2830 ng·h/mL
CMax ([2]; both sexes, human, plasma, intravenous, 1 mg/kg, individual subjects, Constant rate 1 mg/kg/24 hr, read-out: CMax): 118 ng/mL
AUC(0-inf) [2, 4]: 2810 ng·h/mL
AUC(0-t) [2, 4]: 2770 ng·h/mL
CMax ([2]; both sexes, human, plasma, intravenous, 1 mg/kg, individual subjects, Ramp rate 1 mg/kg/24 hr, read-out: CMax): 179 ng/mL
AUC(0-inf) [2, 5]: 6650 ng·h/mL
AUC(0-t) [2, 5]: 6540 ng·h/mL
CMax ([2]; both sexes, human, plasma, intravenous, 2 mg/kg, individual subjects, Ramp rate 2 mg/kg/24 hr, read-out: CMax): 407 ng/mL
AUC(0-inf) [2, 6]: 8000 ng·h/mL
AUC(0-t) [2, 6]: 7960 ng·h/mL
CMax ([2]; both sexes, human, plasma, intravenous, 3 mg/kg, individual subjects, Constant rate 3 mg/kg/24 hr, read-out: CMax): 397 ng/mL
AUC(0-inf) [2, 7]: 11200 ng·h/mL
AUC(0-t) [2, 7]: 11100 ng·h/mL
CMax ([2]; both sexes, human, plasma, intravenous, 3 mg/kg, individual subjects, Ramp rate 3 mg/kg/24 hr, read-out: CMax): 613 ng/mL
AUC(0-inf) [2, 8]: 2970 ng·h/mL
AUC(0-t) [2, 8]: 2910 ng·h/mL
half-life [2, 8]: 3.71 h
CMax ([2]; both sexes, human, plasma, iv, 1 mg/kg, Cohort 1, constant rate 1 mg/kg/24 hr IV, healthy adults on escitalopram, mean, N=6, read-out: CMax): 141 ng/mL
AUC(0-inf) [2, 9]: 3290 ng·h/mL
AUC(0-t) [2, 9]: 3240 ng·h/mL
half-life [2, 9]: 4.52 h
CMax ([2]; both sexes, human, plasma, iv, 1 mg/kg, Cohort 5, ramp rate 1 mg/kg/24 hr IV, healthy adults on escitalopram, mean, N=5, read-out: CMax): 209 ng/mL
AUC(0-inf) [2, 10]: 6440 ng·h/mL
AUC(0-t) [2, 10]: 6330 ng·h/mL
half-life [2, 10]: 4.4 h
CMax ([2]; both sexes, human, plasma, iv, 2 mg/kg, Cohort 4, ramp rate 2 mg/kg/24 hr IV, healthy adults on escitalopram, mean, N=6, read-out: CMax): 395 ng/mL
AUC(0-inf) [2, 11]: 8850 ng·h/mL
AUC(0-t) [2, 11]: 8800 ng·h/mL
half-life [2, 11]: 4.84 h
CMax ([2]; both sexes, human, plasma, iv, 3 mg/kg, Cohort 2, constant rate 3 mg/kg/24 hr IV, healthy adults on escitalopram, mean, N=4 completers, read-out: CMax): 427 ng/mL
AUC(0-inf) [2, 12]: 11000 ng·h/mL
AUC(0-t) [2, 12]: 10900 ng·h/mL
half-life [2, 12]: 5.1 h
CMax ([2]; both sexes, human, plasma, iv, 3 mg/kg, Cohort 3, ramp rate 3 mg/kg/24 hr IV, healthy adults on escitalopram, mean, N=6, read-out: CMax): ~592 ng/mL
time to average steady state plasma levels after start of infusion ([2]; constant 5-HTP infusion rates 1 mg/kg/24 hr and 3 mg/kg/24 hr): approximately 4 h
concentration at 1 h ([2]; human, plasma, intravenous, 3 mg/kg/24 hr, Cohort 2, constant 3 mg/kg/24 hr, the 2 discontinued subjects, read-out: initial 5-HTP plasma levels, T=1 h): 248 ng/mL
CMax [2, 14]: 480 ng/mL and 320 ng/mL and 512 ng/mL
time to average steady state plasma levels ([2]; variable (ramp) infusion, average rate 1-, 2-, and 3 mg/kg/24 hr): 14 to 24 h
SMILES: N[C@@H](Cc1c[nH]c2ccc(O)cc12)C(=O)O [5-HTP, 5-hydroxytryptophan]
dose proportionality [1]: dose proportionality for doses up to 3 mg/kg/24 hr was accepted
AUCInf [2, 13]: 2551.36 ng·h/mL and 2930.09 ng·h/mL and 3832.68 ng·h/mL and 2234.41 ng·h/mL and 3351.07 ng·h/mL
AUCLast [2, 13]: 2530.16 ng·h/mL and 2885.80 ng·h/mL and 3762.18 ng·h/mL and 2185.63 ng·h/mL and 3291.36 ng·h/mL
CMax [2, 13]: 112 ng/mL and 143 ng/mL and 189 ng/mL and 114 ng/mL and 169 ng/mL
AUCInf [2, 14]: 9781.13 ng·h/mL and 7039.23 ng·h/mL and 10597.49 ng·h/mL
AUCLast [2, 14]: 9690.71 ng·h/mL and 6999.32 ng·h/mL and 10537.75 ng·h/mL
AUCInf [2, 15]: 4399.83 ng·h/mL and 3862.84 ng·h/mL and 2807.47 ng·h/mL and 2572.27 ng·h/mL
AUCLast [2, 15]: 4345.10 ng·h/mL and 3799.02 ng·h/mL and 2767.78 ng·h/mL and 2505.93 ng·h/mL
CMax [2, 15]: 266 ng/mL and 247 ng/mL and 192 ng/mL and 160 ng/mL
AUCInf [2, 16]: 6254.18 ng·h/mL and 6207.11 ng·h/mL and 6316.80 ng·h/mL and 6043.68 ng·h/mL and 7134.20 ng·h/mL
AUCLast [2, 16]: 6191.76 ng·h/mL and 6095.21 ng·h/mL and 6245.16 ng·h/mL and 5955.75 ng·h/mL and 6968.01 ng·h/mL
CMax [2, 16]: 373 ng/mL and 352 ng/mL and 385 ng/mL and 414 ng/mL and 437 ng/mL
AUCInf [2, 17]: 11393.96 ng·h/mL and 13786.66 ng·h/mL and 10786.90 ng·h/mL and 8427.71 ng·h/mL and 10152.61 ng·h/mL
AUCLast [2, 17]: 11310.89 ng·h/mL and 13698.51 ng·h/mL and 10738.77 ng·h/mL and 8350.62 ng·h/mL and 10098.28 ng·h/mL
CMax [2, 17]: 660 ng/mL and 679 ng/mL and 644 ng/mL and 454 ng/mL and 502 ng/mL
